Earlier results, collected in patent US10828380B2, “Conjugate of polysarcosine and NIR contrast agent for photoacoustic imaging” (CANON KABUSHIKI KAISHA, priority 2015, dated 2020).

For `CC1(C)C(/C=C/C=C/C=C/C=C2/N(CCCCS(=O)(=O)[O-])c3ccc4ccccc4c3C2(C)C)=[N+](CCCCS(=O)(=O)[O-])c2ccc3ccccc3c21.[Na+]` [ICG, indocyanine green], the half-life in blood is given as “about several minutes”.
